The record followed here is PubChem BioAssay (NCI).

Some test systems named below: 786-0 renal; HS 578T breast; NCI-H522 lung; OVCAR-8 ovarian; PC-3 prostate; SK-MEL-2 melanoma; SK-MEL-28 melanoma; SK-MEL-5 melanoma; SN12C renal; SR leukemia.
Common to all, as to test: NCI-60 cell line screen, 48 h

The structures appear in SMILES notation.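 Assay format: 96-well plates, 48-hour exposure. GI50: concentration for 50% inhibition of growth. TGI: concentration producing complete growth inhibition.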 Bounds are passed on as bounds.

For the compound `COc1ccc(CNc2c3ccccc3nc3ccccc23)cc1OC`, the GI50 in the test on 786-0 renal is 2.78 µM; in the test on HS 578T breast it was 2.64 µM; in the test on NCI-H522 lung, 1.55 µM; in the test with OVCAR-8 ovarian, 2.17 µM; in the test with PC-3 prostate, 2.58 µM; in the test with SK-MEL-2 melanoma it was 2.28 µM. The GI50 in the test with SK-MEL-28 melanoma is 3.14 µM; in the test on SK-MEL-5 melanoma, 1.87 µM; in the test with SN12C renal, 2.36 µM; with SR leukemia, 1.34 µM. For the same compound, the TGI in the test on 786-0 renal is 12.1 µM; in the test with HS 578T breast it was 10.1 µM; in the test with NCI-H522 lung, 4.15 µM; with OVCAR-8 ovarian, 12.1 µM; in the test with PC-3 prostate, 9.97 µM; with SK-MEL-2 melanoma, 6.4 µM. For the same compound, the TGI is 10.8 µM in the test with SK-MEL-28 melanoma, 3.64 µM with SK-MEL-5 melanoma, 8.54 µM with SN12C renal and 7.2 µM with SR leukemia.
Turning to `CCN1C(=O)N(CC)C2C1NC(=S)N2/N=C/C=C/c1cccs1` (stereo not drawn), the GI50 in the test with 786-0 renal was 0.615 µM; with HS 578T breast, 0.281 µM; with NCI-H522 lung, 0.214 µM; with OVCAR-8 ovarian, 0.548 µM; in the test with PC-3 prostate, 0.344 µM; with SK-MEL-2 melanoma, 0.529 µM. Also, the values for the GI50 in the test with SK-MEL-5 melanoma, in the test with SN12C renal and with SR leukemia were 0.274 µM, 0.62 µM and 0.217 µM, respectively. In addition, the TGI in the test with 786-0 renal was above 100 µM; in the test with NCI-H522 lung, 1.69 µM; with OVCAR-8 ovarian it was above 100 µM; in the test with PC-3 prostate, above 100 µM; with SK-MEL-2 melanoma it was above 100 µM; with SK-MEL-28 melanoma it was above 100 µM. The figures for the TGI with SK-MEL-5 melanoma, with SN12C renal and in the test with SR leukemia were 5.93 µM, above 100 µM and above 38.9 µM, respectively.
As to `O=C(O)c1ccccc1-c1ccccc1C(=O)Nc1ccc2c(c1)Cc1cc(F)ccc1-2`, the TGI in the test with 786-0 renal was above 100 µM; with HS 578T breast, above 100 µM; in the test on NCI-H522 lung, 63 µM; in the test with OVCAR-8 ovarian it was above 100 µM; with PC-3 prostate, 68.2 µM; in the test on SK-MEL-2 melanoma it was 37.9 µM. Besides, the TGI was above 100 µM in the test on SK-MEL-28 melanoma, 47.2 µM in the test on SK-MEL-5 melanoma, 45.5 µM in the test with SN12C renal and 48.9 µM in the test with SR leukemia.
For `O=C(O)Cc1c(O)ccc2ccccc12`, the TGI in the test with 786-0 renal, in the test on HS 578T breast, in the test with NCI-H522 lung, in the test on OVCAR-8 ovarian, in the test with PC-3 prostate and in the test on SK-MEL-2 melanoma was above 100 µM throughout. Also, the TGI in the test with SK-MEL-28 melanoma, in the test with SK-MEL-5 melanoma, in the test with SN12C renal and in the test on SR leukemia was above 100 µM in each case.
As to `COc1cc(NC(C)CCCN)c2nccc(C)c2c1OC` (stereo not drawn), the GI50 was 20.3 µM in the test on 786-0 renal; 8.5 µM in the test with HS 578T breast; 5.28 µM in the test with NCI-H522 lung; 14.5 µM with OVCAR-8 ovarian; 10.5 µM in the test with PC-3 prostate; 18.8 µM with SK-MEL-2 melanoma. In addition, the GI50 is 14.6 µM in the test on SK-MEL-28 melanoma, 3.97 µM in the test on SK-MEL-5 melanoma, 11.4 µM in the test with SN12C renal and 20.8 µM in the test with SR leukemia. For the same compound, the TGI in the test with 786-0 renal was 55.7 µM; in the test with HS 578T breast it was 35.4 µM; in the test with NCI-H522 lung, 19.6 µM; with OVCAR-8 ovarian it was 42.3 µM; with PC-3 prostate, 34 µM; in the test with SK-MEL-2 melanoma, 49.8 µM. Further, the TGI came to 29.6 µM with SK-MEL-28 melanoma, 15.7 µM in the test with SK-MEL-5 melanoma, 25.8 µM with SN12C renal and 60.7 µM with SR leukemia.
As for `CCCS(=O)(=O)Nc1ccc(Nc2c3ccccc3nc3ccccc23)c(OC)c1`, the TGI in the test with 786-0 renal worked out at 3.49 µM; in the test on HS 578T breast, 16.7 µM; in the test with NCI-H522 lung, 5.33 µM; with OVCAR-8 ovarian, 5.82 µM; in the test on PC-3 prostate, 17.6 µM; in the test with SK-MEL-2 melanoma it was 7.7 µM. In addition, the TGI in the test with SK-MEL-28 melanoma was 1.3 µM; in the test with SK-MEL-5 melanoma, 14.7 µM; with SN12C renal it was 3.18 µM; in the test with SR leukemia, 0.85 µM.
As to `CC(=O)c1c(CBr)n([O-])c2ccccc2[n+]1=O`, the GI50 in the test with 786-0 renal is 5.59 µM; in the test on HS 578T breast, 17.4 µM; with NCI-H522 lung it was 2.93 µM; in the test with OVCAR-8 ovarian it was 18.1 µM; in the test with PC-3 prostate, 15.5 µM; in the test with SK-MEL-2 melanoma, 14.4 µM. For the same compound, the GI50 is 13 µM in the test on SK-MEL-28 melanoma, 10.5 µM with SK-MEL-5 melanoma, 14.1 µM in the test with SN12C renal and 3.22 µM in the test with SR leukemia. Besides, the TGI was found to be 17.7 µM in the test with 786-0 renal; 48.8 µM in the test with HS 578T breast; 8.91 µM with NCI-H522 lung; 40.7 µM in the test with OVCAR-8 ovarian; 33.1 µM in the test on PC-3 prostate; 30 µM in the test with SK-MEL-2 melanoma. Further, the TGI is 27.7 µM in the test on SK-MEL-28 melanoma, 22.6 µM in the test on SK-MEL-5 melanoma, 27.3 µM in the test on SN12C renal and 8.03 µM with SR leukemia.
On to `N#CC1(C2SCCS2=O)C2=C(C(=O)c3ccccc3C2=O)N2CCCC21` (stereo not drawn), for which the TGI turned out to be 18.7 µM in the test on 786-0 renal; 12.8 µM with HS 578T breast; 5.78 µM with NCI-H522 lung; 7.83 µM with OVCAR-8 ovarian; 14.7 µM in the test with PC-3 prostate; 4.12 µM with SK-MEL-2 melanoma. For the same compound, the TGI stood at 7.8 µM in the test on SK-MEL-28 melanoma, 1.1 µM with SK-MEL-5 melanoma, 6.71 µM in the test on SN12C renal and 20.7 µM with SR leukemia.
On to `N#CC(C(=O)/C(=N/Nc1nc(=S)[nH]n1N)C(C#N)c1ccccc1)c1ccccc1` (stereo not drawn), for which the TGI with 786-0 renal, with HS 578T breast, in the test with NCI-H522 lung, in the test on OVCAR-8 ovarian, in the test with PC-3 prostate and with SK-MEL-2 melanoma was above 100 µM throughout. In addition, the TGI with SK-MEL-28 melanoma, in the test on SK-MEL-5 melanoma, with SN12C renal and in the test on SR leukemia was above 100 µM in each case.
Regarding `CN(C)c1ccc2nc3ccc(=O)cc-3sc2c1`, the GI50 in the test on 786-0 renal was 2.06 µM; with HS 578T breast it was 7.12 µM; in the test with NCI-H522 lung it was 0.835 µM; in the test with OVCAR-8 ovarian, 0.651 µM; in the test with PC-3 prostate, 0.0726 µM; with SK-MEL-2 melanoma it was 3.51 µM. Moreover, the GI50 with SK-MEL-28 melanoma was 4.6 µM; in the test with SK-MEL-5 melanoma, 0.173 µM; in the test with SN12C renal, 0.865 µM; with SR leukemia it was 0.884 µM. The TGI in the test with 786-0 renal is above 100 µM; in the test on HS 578T breast, above 100 µM; in the test with NCI-H522 lung, 7.85 µM; in the test on OVCAR-8 ovarian it was above 100 µM; in the test on PC-3 prostate, above 100 µM; with SK-MEL-2 melanoma, 25.8 µM. Moreover, the TGI in the test with SK-MEL-28 melanoma was 27.1 µM; in the test on SK-MEL-5 melanoma it was 0.495 µM; in the test on SN12C renal it was above 79 µM; in the test on SR leukemia it was above 46.5 µM.
